The values below are quoted from earlier work in patent US11766438B2, “Pharmaceutical compositions of tofacitinib for oral administration” (Slayback Pharma LLC, priority 2020, dated 2023).

By Solubility is commonly meant the dissolved amount per volume that the medium holds.

SMILES strings stand for the structures. Where two headings read alike, the source gives them in different places.

As to `C[C@@H]1CCN(C(=O)CC#N)C[C@@H]1N(C)c1ncnc2[nH]ccc12.O=C(O)CC(O)(CC(=O)O)C(=O)O` [Tofacitinib citrate, (3R,4R)-4-methyl-3-(methyl-7H-pyrrolo[2,3-d]pyrimidin-4-ylamino)-β-oxo-1-piperidinepropanenitrile, 2-hydroxy-1,2,3-propanetricarboxylate (1:1)], the Solubility (aqueous solution of pH 1 to 3.9) was 3480 to 28000 µg/mL and the Solubility (aqueous solution of pH 4.53 to 8) was 200 to 590 µg/mL.
